In patent US7902135B2, “Method of improving the ocular tolerance of foaming and/or detergent compositions for skin use” (Societe d'Exploitation de Produits pour les Industries …, priority 2006, dated 2011):

System: chorioallantoic membrane of the preincubated Leghorn hen's egg
Test: HET-CAM (Hen's Egg Test ChorioAllantoic Membrane) test of ocular irritation potential
Settings: for Classification of the concentrate tested: HET-CAM, active material concentration of 1%, pH 7, class by scale of the index I
Description: The experimental protocol of this test is adapted from the Luepke publication (The Hen's Egg Test: “An Alternative Toxicity Test”, Brit. J. Dermato., 1986, 115. Suppl. 31, 133-135, Luepke N. P. & Kemper F. H. The HET-CAM Test: “An Alternative to the Draize Test”, Food Chem. Toxicol., 1986, 24, No. 6/7, 495-496), from the INVITTOX No. 47 protocol (1992, INVITTOX data bank, 34 Stoney Street, Nottingham, NG1 1NB, UK) and from Annex IV to the order published in the Official Journal of the French Republic of 26 Dec. 1996 relating to the official methods for the analysis of beauty products (NOR: FCEC9600217A).
This tests consists in assessing the irritation potential of a substance by reading the modifications observed after application of a solution of this substance to the richly vascularized chorioallantoic membrane of the preincubated Leghorn hen's egg.
The products were tested at an active material concentration of 1%. The solutions are prepared by diluting in deionized water at most 24 hours in advance.
The pH of the test solutions is adjusted to 7 with triethanolamine or lactic acid, if necessary.
On reception, the fertilized eggs are preincubated in an incubator for 10 days at 37.8° C.±0.5° C. with a degree of humidity in the incubator of 50% to 60%.
The shell of the eggs on which the tests are carried out is cut out around the air pocket and the chorioallantoic membrane is uncovered by carefully removing the shell membrane using tweezers.
0.3 cm^3 of the solution to be tested is deposited at the surface of the membrane. […]
By definition, if one of the phenomena has not appeared during these five minutes (300 seconds), it is recorded ti=301 seconds.
Each solution is tested on 4 to 6 eggs according to the repeatability of the reactions observed. The Het-Cam index I, representative of the test, is calculated for each egg tested in the following way: I=5×(301−t1)/300+7×(301−t2)/300+9×(301−t3)/300
The mean of the individual indices is subsequently calculated, along with the statistical uncertainty i: i=t·S/√n for a risk of 5% […]

Sodium lauryl ether (2.2 EO) sulfate [compound 1]
Classification of the concentrate tested: Irritating (9 ≦ . . . I < 12) | Classification of the concentrate tested (listed as comparative example 1): irritating | Het-Cam index (active material concentration of 1% in deionized water, pH adjusted to 7, 0.3 cm^3 on membrane, rinsed after 20 seconds, read over 5 minutes, mean of 4 to 6 eggs): 10.7
